From ChEMBL document CHEMBL5579838, “Design, synthesis and antitumor activity of a novel FGFR2-selective degrader to overcome resistance of the FGFR2V564F gatekeeper mutation based on a pan-FGFR inhibitor” (Eur J Med Chem, 2024) come the findings set out here.

In data set [1] the target is T1, Fibroblast growth factor receptor 3 (Homo sapiens, UniProt P22607). Nature of the data set: Induction of FGFR3 degradation in human MCF7 cells assessed as reduction in FGFR3 level at 0 to 300 nM measured after 24 hrs by Western blot analysis. The data set is classed as cell-based. The note with it: dose 0-300 nM. (Immunoblotting shows a protein as a band on a membrane.)
Target sequence in this assay (P22607 23-806 limits assumed): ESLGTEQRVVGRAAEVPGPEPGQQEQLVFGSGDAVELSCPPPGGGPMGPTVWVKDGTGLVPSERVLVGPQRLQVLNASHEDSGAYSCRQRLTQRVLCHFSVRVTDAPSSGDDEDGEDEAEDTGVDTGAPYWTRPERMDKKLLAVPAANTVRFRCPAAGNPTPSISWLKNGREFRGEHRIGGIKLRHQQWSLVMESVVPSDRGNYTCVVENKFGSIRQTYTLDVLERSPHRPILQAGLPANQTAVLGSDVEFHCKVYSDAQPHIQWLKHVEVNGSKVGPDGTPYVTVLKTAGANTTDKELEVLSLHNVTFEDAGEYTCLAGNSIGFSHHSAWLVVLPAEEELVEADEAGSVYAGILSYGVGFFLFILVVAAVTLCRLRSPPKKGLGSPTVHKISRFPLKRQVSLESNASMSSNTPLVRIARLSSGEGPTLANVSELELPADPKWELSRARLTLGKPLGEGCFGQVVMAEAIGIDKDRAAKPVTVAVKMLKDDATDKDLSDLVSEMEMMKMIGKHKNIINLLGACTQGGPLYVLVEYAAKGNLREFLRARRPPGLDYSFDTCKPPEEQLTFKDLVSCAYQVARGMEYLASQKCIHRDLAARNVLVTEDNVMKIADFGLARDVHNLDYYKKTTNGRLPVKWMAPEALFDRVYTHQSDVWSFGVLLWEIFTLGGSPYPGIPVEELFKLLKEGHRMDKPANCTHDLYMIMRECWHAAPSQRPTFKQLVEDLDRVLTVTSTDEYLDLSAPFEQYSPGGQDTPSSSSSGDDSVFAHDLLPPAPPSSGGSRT

Data set [2] addresses T2, Fibroblast growth factor receptor 4 (Homo sapiens, UniProt P22455). Description: Induction of FGFR4 degradation in human Huh-7 cells assessed as reduction in FGFR4 level at 0 to 300 nM measured after 24 hrs by Western blot analysis. In kind it is cell-based. Particulars: dose 0-300 nM.
Target sequence in this assay (P22455 22-802 limits assumed): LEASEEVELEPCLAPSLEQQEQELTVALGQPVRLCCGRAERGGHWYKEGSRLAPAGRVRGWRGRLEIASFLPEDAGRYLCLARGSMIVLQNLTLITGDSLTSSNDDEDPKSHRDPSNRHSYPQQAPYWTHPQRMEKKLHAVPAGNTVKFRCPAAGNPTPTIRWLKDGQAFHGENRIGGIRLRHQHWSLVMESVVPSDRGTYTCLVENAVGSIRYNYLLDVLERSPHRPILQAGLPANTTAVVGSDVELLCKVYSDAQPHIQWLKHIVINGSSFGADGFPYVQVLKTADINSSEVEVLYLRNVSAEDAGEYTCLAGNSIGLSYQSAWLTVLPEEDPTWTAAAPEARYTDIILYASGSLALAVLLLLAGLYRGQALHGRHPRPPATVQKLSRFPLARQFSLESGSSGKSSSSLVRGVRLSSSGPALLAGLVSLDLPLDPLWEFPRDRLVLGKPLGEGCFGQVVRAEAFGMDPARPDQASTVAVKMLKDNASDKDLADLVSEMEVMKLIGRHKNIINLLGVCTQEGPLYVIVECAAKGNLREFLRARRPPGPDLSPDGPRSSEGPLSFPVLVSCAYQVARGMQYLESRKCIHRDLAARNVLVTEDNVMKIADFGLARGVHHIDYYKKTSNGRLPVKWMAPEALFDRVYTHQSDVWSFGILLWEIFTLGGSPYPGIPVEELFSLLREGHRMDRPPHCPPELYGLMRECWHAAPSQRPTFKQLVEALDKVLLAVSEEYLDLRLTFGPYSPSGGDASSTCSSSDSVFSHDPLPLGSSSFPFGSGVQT
The target in data set [3] is T3, Fibroblast growth factor receptor 1 (Homo sapiens, UniProt P11362). Nature of the data set: Induction of FGFR1 degradation in human BXPC-3 cells assessed as reduction in FGFR1 level at 300 nM measured after 24 hrs by Western blot analysis relative to control. In kind it is cell-based. The arrangement: scale not given: the % may be the effect or the level left.
Target sequence in this assay (P11362 22-822 limits assumed): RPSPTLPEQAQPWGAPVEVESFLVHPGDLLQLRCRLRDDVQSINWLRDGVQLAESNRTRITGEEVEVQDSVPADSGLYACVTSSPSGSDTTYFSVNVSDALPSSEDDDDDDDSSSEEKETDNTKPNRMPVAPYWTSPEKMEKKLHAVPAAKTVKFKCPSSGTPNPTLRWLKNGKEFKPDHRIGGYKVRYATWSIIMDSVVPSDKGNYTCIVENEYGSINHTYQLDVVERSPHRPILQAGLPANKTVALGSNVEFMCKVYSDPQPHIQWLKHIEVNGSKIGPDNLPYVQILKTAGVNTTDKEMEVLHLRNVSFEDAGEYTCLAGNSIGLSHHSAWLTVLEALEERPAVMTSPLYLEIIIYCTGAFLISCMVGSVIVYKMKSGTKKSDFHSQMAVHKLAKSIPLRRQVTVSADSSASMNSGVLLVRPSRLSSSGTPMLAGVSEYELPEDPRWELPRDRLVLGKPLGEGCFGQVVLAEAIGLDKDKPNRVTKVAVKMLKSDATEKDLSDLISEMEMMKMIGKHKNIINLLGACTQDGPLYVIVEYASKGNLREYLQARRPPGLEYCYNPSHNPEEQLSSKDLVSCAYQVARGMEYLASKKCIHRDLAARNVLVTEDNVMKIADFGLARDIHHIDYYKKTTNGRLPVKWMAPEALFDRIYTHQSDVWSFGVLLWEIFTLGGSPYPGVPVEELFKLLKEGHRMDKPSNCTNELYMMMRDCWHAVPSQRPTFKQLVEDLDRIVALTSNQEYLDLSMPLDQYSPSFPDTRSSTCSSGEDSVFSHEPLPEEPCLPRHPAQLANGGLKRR
Data set [4] deals with Vascular endothelial growth factor receptor 2 (Homo sapiens) (UniProt P35968). Nature of the data set: Induction of VEGFR2 (unknown origin) degradation.
Data set [5] deals with KATO III stomach cancer cell line. Description: Inhibition of PLC-gamma autophosphorylation in human KATO III cells at 1 to 10 nM measured after 24 hrs by Western blot analysis. In kind it is cell-based. The note with it: dose 1-10 nM.
The target in data set [6] is T4, Fibroblast growth factor receptor substrate 2 (Homo sapiens) (UniProt Q8WU20).
T4 sequence (whole entry): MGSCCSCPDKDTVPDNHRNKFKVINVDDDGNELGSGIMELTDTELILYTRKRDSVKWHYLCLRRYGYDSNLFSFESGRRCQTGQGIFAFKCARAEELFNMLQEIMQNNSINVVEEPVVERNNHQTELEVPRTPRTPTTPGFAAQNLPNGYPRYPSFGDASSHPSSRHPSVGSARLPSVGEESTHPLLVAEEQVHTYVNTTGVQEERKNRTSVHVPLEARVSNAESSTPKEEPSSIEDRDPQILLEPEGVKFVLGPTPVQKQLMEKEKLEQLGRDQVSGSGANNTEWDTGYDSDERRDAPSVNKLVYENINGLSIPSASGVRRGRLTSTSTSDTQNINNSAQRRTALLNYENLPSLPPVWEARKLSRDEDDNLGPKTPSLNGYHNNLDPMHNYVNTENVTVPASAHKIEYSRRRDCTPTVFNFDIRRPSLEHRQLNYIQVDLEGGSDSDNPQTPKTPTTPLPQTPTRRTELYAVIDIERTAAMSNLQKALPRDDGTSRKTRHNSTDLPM
Description: Inhibition of FRS2 autophosphorylation in human KATO III cells at 1 to 10 nM measured after 24 hrs by Western blot analysis. In kind it is cell-based. Particulars: KATO III stomach cancer cell line, dose 1-10 nM.

Data set [7] concerns the target T3, Fibroblast growth factor receptor 1.
Target sequence in this assay (P11362 whole entry): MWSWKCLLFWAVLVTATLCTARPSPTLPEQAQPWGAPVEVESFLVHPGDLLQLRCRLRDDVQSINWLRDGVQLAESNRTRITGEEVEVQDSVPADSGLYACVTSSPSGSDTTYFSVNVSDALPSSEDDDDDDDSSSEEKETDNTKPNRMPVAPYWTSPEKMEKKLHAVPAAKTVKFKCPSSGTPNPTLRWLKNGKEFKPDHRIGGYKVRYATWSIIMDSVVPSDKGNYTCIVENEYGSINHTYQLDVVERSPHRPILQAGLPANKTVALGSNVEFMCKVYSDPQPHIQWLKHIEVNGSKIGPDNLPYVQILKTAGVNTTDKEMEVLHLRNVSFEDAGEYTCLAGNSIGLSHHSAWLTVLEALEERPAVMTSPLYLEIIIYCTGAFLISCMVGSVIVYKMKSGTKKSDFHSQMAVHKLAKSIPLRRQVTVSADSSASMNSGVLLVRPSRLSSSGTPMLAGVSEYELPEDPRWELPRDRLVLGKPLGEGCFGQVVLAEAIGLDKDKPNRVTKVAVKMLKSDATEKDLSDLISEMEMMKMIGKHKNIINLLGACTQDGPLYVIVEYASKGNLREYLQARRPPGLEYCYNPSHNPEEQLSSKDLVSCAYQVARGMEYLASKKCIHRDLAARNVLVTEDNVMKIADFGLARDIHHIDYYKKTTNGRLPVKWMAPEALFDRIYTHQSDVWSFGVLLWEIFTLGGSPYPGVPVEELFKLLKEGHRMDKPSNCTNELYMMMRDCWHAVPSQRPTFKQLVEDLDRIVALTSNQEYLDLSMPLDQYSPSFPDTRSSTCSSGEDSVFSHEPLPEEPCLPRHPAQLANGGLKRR
Description: Inhibition of FGFR1 (unknown origin)
For data set [8], the target named is T1, Fibroblast growth factor receptor 3.
Target sequence in this assay (P22607 whole entry): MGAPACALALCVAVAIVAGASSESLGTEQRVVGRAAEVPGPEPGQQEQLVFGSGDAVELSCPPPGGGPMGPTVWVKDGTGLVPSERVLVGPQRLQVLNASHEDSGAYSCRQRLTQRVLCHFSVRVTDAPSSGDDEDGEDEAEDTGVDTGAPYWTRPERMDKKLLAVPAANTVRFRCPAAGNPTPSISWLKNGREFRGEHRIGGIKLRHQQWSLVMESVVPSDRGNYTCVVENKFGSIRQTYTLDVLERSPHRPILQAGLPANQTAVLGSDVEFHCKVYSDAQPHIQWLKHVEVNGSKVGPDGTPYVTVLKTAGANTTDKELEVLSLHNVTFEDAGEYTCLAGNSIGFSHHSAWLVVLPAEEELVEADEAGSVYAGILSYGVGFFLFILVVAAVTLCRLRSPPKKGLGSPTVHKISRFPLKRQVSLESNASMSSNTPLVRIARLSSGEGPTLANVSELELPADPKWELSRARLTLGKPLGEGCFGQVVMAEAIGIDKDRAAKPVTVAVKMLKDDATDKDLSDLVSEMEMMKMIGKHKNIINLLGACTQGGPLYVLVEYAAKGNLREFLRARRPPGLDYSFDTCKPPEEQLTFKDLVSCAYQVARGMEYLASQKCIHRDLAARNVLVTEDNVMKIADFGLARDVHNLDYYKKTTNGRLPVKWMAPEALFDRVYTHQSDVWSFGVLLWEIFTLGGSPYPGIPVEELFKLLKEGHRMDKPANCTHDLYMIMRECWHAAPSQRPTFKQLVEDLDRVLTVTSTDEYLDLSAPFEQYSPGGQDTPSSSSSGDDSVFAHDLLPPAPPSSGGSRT
Description: Inhibition of FGFR3 (unknown origin)
In data set [9] the target is T2, Fibroblast growth factor receptor 4.
Target sequence in this assay (P22455 whole entry): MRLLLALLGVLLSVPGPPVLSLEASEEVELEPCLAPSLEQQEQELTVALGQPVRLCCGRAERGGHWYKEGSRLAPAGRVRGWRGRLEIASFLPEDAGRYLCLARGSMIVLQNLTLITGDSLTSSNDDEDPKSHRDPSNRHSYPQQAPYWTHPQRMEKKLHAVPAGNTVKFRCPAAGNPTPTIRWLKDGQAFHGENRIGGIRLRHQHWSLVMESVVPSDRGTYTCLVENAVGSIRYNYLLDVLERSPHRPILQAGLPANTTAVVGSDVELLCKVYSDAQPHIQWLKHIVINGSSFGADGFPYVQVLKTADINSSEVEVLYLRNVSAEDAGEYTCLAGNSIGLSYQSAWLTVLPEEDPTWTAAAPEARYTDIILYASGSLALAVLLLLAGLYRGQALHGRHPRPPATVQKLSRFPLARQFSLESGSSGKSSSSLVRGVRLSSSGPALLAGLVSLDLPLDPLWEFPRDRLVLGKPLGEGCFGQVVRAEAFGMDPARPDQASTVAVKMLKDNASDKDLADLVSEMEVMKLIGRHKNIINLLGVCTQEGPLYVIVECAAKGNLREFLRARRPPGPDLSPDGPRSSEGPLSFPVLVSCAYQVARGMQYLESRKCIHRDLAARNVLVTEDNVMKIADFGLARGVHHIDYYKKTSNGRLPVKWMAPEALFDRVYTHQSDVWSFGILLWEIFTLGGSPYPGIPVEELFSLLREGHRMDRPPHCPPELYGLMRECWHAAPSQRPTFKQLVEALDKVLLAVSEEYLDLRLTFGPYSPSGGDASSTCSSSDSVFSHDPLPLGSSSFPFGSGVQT
Description: Inhibition of FGFR4 (unknown origin)
For data set [10], the system named is BaF3. Description: Antiproliferative activity against mouse BaF3 cells stably expressing wild type ETV6-FGFR1 fusion protein incubated for 72 hrs by CCK-8 assay. In kind it is functional, cell-based. Particulars: BaF3, 72 h. Background: Formazan colour is commonly taken as a measure of viable cells.
Data set [11] concerns BaF3. Nature of the data set: Antiproliferative activity against mouse BaF3 cells stably expressing wild type ETV6-FGFR2 fusion protein incubated for 72 hrs by CCK-8 assay. The data set is classed as functional, cell-based. The note with it: BaF3, 72 h.
In data set [12] the test system is BaF3. Description: Antiproliferative activity against mouse BaF3 cells stably expressing wild type ETV6-FGFR3 fusion protein incubated for 72 hrs by CCK-8 assay. The data set is classed as functional, cell-based. Particulars: BaF3, 72 h.
Data set [13] deals with BaF3. Nature of the data set: Antiproliferative activity against mouse BaF3 cells stably expressing wild type ETV6-FGFR4 fusion protein incubated for 72 hrs by CCK-8 assay. In kind it is functional, cell-based. Particulars: BaF3, 72 h.
The subject of data set [14] is AN3-CA. Nature of the data set: Inhibition of cell migration in adherent human AN3-CA cells overexpressing FGFR2 assessed as inhibition of lateral migration at 10 nM incubated for 48 hrs by wound healing assay relative to control. The data set is classed as functional.
The test system of data set [15] is KATO III stomach cancer cell line. Description: Induction of cell cycle arrest at G0/G1 phase in FGFR2 amplified human KATO III cells at 0.1 to 10 nM incubated for 24 hrs by PI staining based flow cytometry analysis. The data set is classed as functional. The note with it: dose 0.1-10 nM. In general terms: Flow cytometry measures light scatter and fluorescence of single cells or particles in a stream.

For data set [16] the test system is unchanged. Nature of the data set: Induction of cell cycle arrest at G0/G1 phase in FGFR2 amplified human KATO III cells assessed as inhibition of cyclin D1 protein expression at 0.1 to 10 nM by Western blot analysis. The data set is classed as functional, cell-based. Particulars: dose 0.1-10 nM.
The test system is the same in data set [17]. Description: Induction of cell cycle arrest at G0/G1 phase in FGFR2 amplified human KATO III cells assessed as inhibition of CDK4 protein expression at 0.1 to 10 nM by Western blot analysis. The data set is classed as functional, cell-based. The note with it: dose 0.1-10 nM.
Data set [18] has the same test system. Description: Induction of cell cycle arrest at G0/G1 phase in FGFR2 amplified human KATO III cells assessed as inhibition of CDK6 protein expression at 0.1 to 10 nM by Western blot analysis. In kind it is functional, cell-based. Particulars: dose 0.1-10 nM.
The nature of data set [19]: Cmax in overnight fasted mouse at 1 mg/kg, iv administered as single dose by LC-MS/MS analysis. The data set is classed as ADME, organism-based. The note with it: in vivo.
Data set [20] can be described thus: Half life in overnight fasted mouse at 1 mg/kg, iv administered as single dose by LC-MS/MS analysis. In kind it is ADME, organism-based. Particulars: in vivo.
The nature of data set [21]: AUC (0 to t) in overnight fasted mouse at 1 mg/kg, iv administered as single dose by LC-MS/MS analysis. In kind it is ADME, organism-based. Particulars: in vivo.
A short description of data set [22]: Cmax in overnight fasted mouse at 10 mg/kg, po administered as single dose by LC-MS/MS analysis. The data set is classed as ADME, organism-based. Particulars: in vivo.
Data set [23] can be described thus: Tmax in overnight fasted mouse at 10 mg/kg, po administered as single dose by LC-MS/MS analysis. Particulars: in vivo. In kind it is ADME, organism-based.
Data set [24] in a line: Half life in overnight fasted mouse at 10 mg/kg, po administered as single dose by LC-MS/MS analysis. In kind it is ADME, organism-based. The note with it: in vivo.
The nature of data set [25]: AUC (0 to t) in overnight fasted mouse at 10 mg/kg, po administered as single dose by LC-MS/MS analysis. The note with it: in vivo. In kind it is ADME, organism-based.
Data set [26] in a line: Oral bioavailability in overnight fasted mouse at 10 mg/kg administered as single dose by LC-MS/MS analysis. The data set is classed as ADME, organism-based. Particulars: in vivo.
The target in data set [27] is T1, Fibroblast growth factor receptor 3. Description: Induction of FGFR3 degradation in human MCF7 cells assessed as reduction in FGFR3 level measured after 24 hrs by Western blot analysis. In kind it is cell-based.
Target sequence in this assay (P22607 whole entry): as the sequence (P22607 whole entry) above
The target of data set [28] is T2, Fibroblast growth factor receptor 4. Nature of the data set: Induction of FGFR4 degradation in human Huh-7 cells assessed as reduction in FGFR4 level measured after 24 hrs by Western blot analysis. In kind it is cell-based.
Target sequence in this assay (P22455 whole entry): as the sequence (P22455 whole entry) above
Data set [29] deals with T3, Fibroblast growth factor receptor 1. Nature of the data set: Induction of FGFR1 degradation in human BXPC-3 cells assessed as reduction in FGFR1 level measured after 24 hrs by Western blot analysis. The data set is classed as cell-based.
Target sequence in this assay (P11362 whole entry): as the sequence (P11362 whole entry) above
The test system of data set [30] is KATO III stomach cancer cell line. Nature of the data set: cells. The note with it: Homo sapiens, 72 h.
Description: Antiproliferative activity against FGFR2 amplified human KATO III cells measured after 3 days by MTT assay
The test system of a further data set is SNU-16. Description: cells. Particulars: Homo sapiens, SNU-16, 72 h.
The test system of data set [31] is AN3-CA. Description: cells. The note with it: Homo sapiens, 72 h.
Description: Antiproliferative activity against human AN3-CA cells overexpressing FGFR2 measured after 72 hrs by MTT assay
For the next data set, the system named is NCI-H1975. Description: cells. The note with it: Homo sapiens, NCI-H1975, 72 h.
For the next data set, the system named is A2780. Nature of the data set: cells. The note with it: Homo sapiens, A2780, 72 h.
A further data set has as its system BXPC-3. Nature of the data set: cells. Particulars: Homo sapiens, BXPC-3, 72 h.
A further data set can be described thus: cells. Particulars: Homo sapiens, Huh-7, 72 h.
In the next data set the test system is MDA-MB-231. Nature of the data set: cells. Particulars: Homo sapiens, MDA-MB-231, 72 h.
The next data set deals with SNU-449. Nature of the data set: cells. Particulars: Homo sapiens, SNU-449, 72 h.
In another data set the test system is HCT-116. Nature of the data set: cells. The note with it: Homo sapiens, HCT-116, 72 h.
The next data set concerns MCF7. Description: cells. The note with it: Homo sapiens, MCF7, 72 h.
The nature of data set [32]: in vitro. The note with it: human, L02 cells.
Data set [33] can be described thus: in vitro. The note with it: human, HEK293T cells.
In data set [34] the target is von Hippel-Lindau disease tumor suppressor/Fibroblast growth factor receptor 2 (Homo sapiens, UniProt P21802+P40337). Nature of the data set: PROTAC activity at VHL/FGFR2 in human KATO III cells assessed as induction of FGFR2 degradation incubated for 24 hrs by Western blot analysis. In kind it is cell-based. The note with it: kato iii stomach cancer cell line.

The source made the active and inactive calls.

Description for SNU-16: Antiproliferative activity against FGFR2 amplified human SNU-16 cells measured after 72 hrs by MTT assay

As to `C[C@@H](Oc1ccc2[nH]nc(/C=C/c3cnn(CCNC(=O)CCCCCNc4ccc5c(c4)C(=O)N(C4CCC(=O)NC4=O)C5=O)c3)c2c1)c1c(Cl)cncc1Cl` (stereo partly drawn), the outcome in data set [1], in data set [2] and in data set [4] was inactive. Further, in data set [3], the Activity amounted to 30%. Moreover, the inhibition result in [5] and in [6] was “Active” throughout. Also, the half-maximal inhibitory concentration (IC50) is 0.00147 µM in data set [7]; 0.00126 µM in [8]; 0.0151 µM in data set [9]; 0.0275 µM in the data set on BaF3 [10]; 0.00091 µM in the data set on BaF3 [11]; 0.0002 µM in the data set with BaF3 [12]. The IC50 amounted to 0.0327 µM in the data set on BaF3 [13]; 0.00079 µM in data set [30]; 0.000207 µM in the data set on SNU-16; 0.00463 µM in the data set with AN3-CA [31]; 2.24 µM in the data set with NCI-H1975; 0.627 µM in the data set with A2780. Also, the IC50 was 0.997 µM with BXPC-3; over 5 µM in “cells”; 2.52 µM in the data set on MDA-MB-231; 0.923 µM in the data set on SNU-449; 1.91 µM in the data set on HCT-116; 2.98 µM in the data set on MCF7. Also, the inhibition at 0.01 µM in the data set with AN3-CA [14] is over 15%. For the same compound, the outcome in data set [15], in data set [16], in data set [17] and in [18] was Active. Moreover, the Cmax worked out at 1940 ng/mL in data set [19] and 19.4 ng/mL in data set [22]. The half-life in data set [20] was 4.14 min; in [24], 45 min. Moreover, the AUC(0-t) was 151 ng·h/mL in data set [21] and 9.61 ng·h/mL in data set [25]. In addition, the Tmax in data set [23] was determined as 30 min. Also, the bioavailability in [26] was 0.64%. Moreover, the DC50 in data set [27], in data set [28] and in data set [29] was over 0.3 µM in each case. For the same compound, the IC50 at 72 h in “in vitro [32]” is over 5 µM; in the data set “in vitro [33]”, 2.14 µM.
Take `COc1cc(OC)c(Cl)c(NC(=O)N(C)c2cc(Nc3ccc(N4CCN(CC(=O)N[C@H](C(=O)N5C[C@H](O)C[C@H]5C(=O)N[C@@H](C)c5ccc(-c6scnc6C)cc5)C(C)(C)C)CC4)cc3)ncn2)c1Cl`: in [34], the DC50 stood at 0.07 µM.

A word on the inhibition: it is the drop in the measured response relative to a control, in per cent. As usually defined, the IC50 is the concentration needed to halve the response being measured. Usually Cmax stands for the peak of the concentration-time curve. As usually defined, the half-life is the time needed for the level to fall by half in the phase considered. Usually AUC(0-t) stands for exposure summed from dosing to a finite time, without extrapolation to infinity. For orientation: Tmax means the time from dosing to the highest level. As a reminder, the bioavailability is the share of a dose that reaches the circulation, judged against a reference dose that is usually intravenous. One may read the DC50 as the concentration giving 50% degradation.
